Test results as given in US12503440B2, “Nitroxoline derivative, preparation method therefor, and use thereof” (Jiangsu Yahong Meditech Co., Ltd., priority 2020, dated 2025).
Converted amounts (≈) assume the structure as drawn.

Assays:
Format in all cases: cell-based
[1] = tested on: Endothelial cell line HUVEC; assay: Inhibitory activity on cells, CellTiter-Glo viability, 72 h; settings: Homo sapiens
From the text: (§1) • HUVEC (purchased from Allcells Biological Technology (Shanghai) Co., Ltd.); UM-UC-3 (ATCC); LNCaP Clone FGC (ATCC); RM-1 (purchased from Nanjing Cobioer Biosciences Co., Ltd.) 2. Reagents • Endothelial cell complete medium (Allcells, H-004) • Medium RPMI1640 (ATCC, 30-2001) • Medium EMEM (ATCC, 30-2003) • Medium DMEM (Gibco, 12430-054) • Fetal bovine serum (Gibco, 10091148) • Penicillin-streptomycin double anti-body (Gibco, S110JV) • DPBS (Gibco, 14190-144) • CellTiter-Glo® kit (Promega, G7573) • Trypsin (0.25%), phenol red (Gibco, 25200-056) • DMSO (Sigma, D2650) 3. Instruments • Biological safety cabinet (Suzhou Antai Airtech Co., Ltd., BSC-1300A II) • Inverted microscope (Nikon, CKX53) • Automated cell counter (Life Technologies, countess II) • Multifunctional microplate reader (Biotek, H1FM) • Shaker (Hangzhou Allsheng Instruments Co., Ltd., OS-100) • GraphPad Prism 5.0 software • XLFIT 5.3 (Inforstack Shanghai Co., Ltd.) 4. Test Method
(§2) In this test method, the following experiments were carried out in a biological safety cabinet, and the specific steps are as follows: • (1) On the first day, the cells were seeded in a 96-well plate, and the previous medium was poured off. 5 mL of DPBS was added to wash the cells, and then removed by a pipette. Then, 1 mL of trypsin (0.25%) was added, and the plate was placed in a cell culture incubator at 37° C., 5% CO2 for digestion, and taken out after about 2 to 5 minutes. New corresponding medium was added, and pipetted to resuspend the cells evenly, and the cells were then counted with an automated cell counter.
(§3) The digestion was observed using an inverted microscope.
(§4) Regarding to HUVEC, the medium used was endothelial cell complete medium; regarding to UM-UC-3, the medium used was 89v % EMEM+10v % fetal bovine serum+1 v % penicillin-streptomycin double anti-body; regarding to LNcaP Clone FGC, the medium used was 89v % RPM11640+10v % fetal bovine serum+1 v % penicillin-streptomycin double anti-body; and regarding to RM-1, the medium used was 89v % DMEM+10v % fetal bovine serum+1v % penicillin-streptomycin double anti-body. • (2) HUVEC cells were seeded in columns 1 to 11 of a 96-well plate (Corning, Cat. No. 3610) at a density of 2000 cells per well in 100 μL of medium, and the medium free of cell was added to the wells of column 12. The other three types of cells were also seeded, wherein UM-UC-3 and RM-1 cells were seeded at a density of 3000 cells per well, and LNCap Clone FGC cells were seeded at a density of 5000 cells per well. Then, the plate was placed in an incubator at 37° C., 5% CO2 for 24 hours. • (3) On the second day, the compounds of the present invention and the reference drug nitroxoline (obtained according to the preparation method disclosed in the prior art) were diluted in gradient (2.5 folds, started at 100 μmol) to obtain 8 dose points (there were a total of 8 columns of wells; the first column of wells had the highest concentration, the concentration decreased in turn, and the last column of wells had the lowest concentration). 10 uL of the compound diluted in gradient was added to the 100 μL of cells in column 1 to column 10 with an 8-channel pipette. 10 μL of the corresponding medium containing 0.33v % DMSO was added to column 11 and column 12. The plate was incubated in an incubator at 37° C., 5% CO2 for 72 hours (note: column 11 was used as MAX well with cells and no compounds; and column 12 was used as MIN well with no cells and no compounds). • (4) After treating with the compounds of the present invention for 72 hours, the cell viability detection reagents in the above CellTiter-Glo® kit were added to the 96-well plate at 50 μL per well according to the instructions. […]

[2] = tested on: Bladder cancer cell line UM-UC-3; assay: Inhibitory activity on cancer cells, CellTiter-Glo viability, 72 h; settings: Homo sapiens, UMUC3, UM-UC-3, 72 h
From the text: as §1, §2, §3, §4

[3] = tested on: Prostate cancer cell line LNcaP Clone FGC; assay: as above; settings: Homo sapiens
From the text: as §1, §2, §3, §4

[4] = tested on: Mouse prostate cancer cell line RM-1; assay: as above; settings: RM-1, 72 h
From the text: as §1, §2, §3, §4

Staphylococcus aureus = assay: Bacteriostatic activity, micro broth dilution MIC (CLSI); settings: 20 hours; for MIC50 / MIC90: clinical strains (methicillin-resistant and sensitive), CAMHB; for MIC50: read-out: Staphylococcus aureus Clinical strain MIC50; for MIC90: read-out: Staphylococcus aureus Clinical strain MIC90; for MIC: standard strain ATCC29213, CAMHB
Method: (§5) The purpose of this test is to determine the bacteriostatic activity of the compounds of the present invention against a representative panel of strains (Gram-negative bacteria: […] ATCC 25922, Acinetobacter baumannii ATCC 19606; Gram-positive bacteria: Staphylococcus aureus ATCC29213). Bacteriostatic activity was determined by minimum inhibitory concentration (MIC), MIC50, MIC90. This test was entrusted to Shanghai Junj Lab Co., Ltd. Except for the test drugs, all other test materials were provided by Shanghai Junj Lab Co., Ltd.
(§6) The tested bacteria were several strains of clinically isolated carbapenem-resistant Escherichia coli, several strains of carbapenem-resistant Acinetobacter baumannii, several strains of methicillin-resistant Staphylococcus aureus, and several strains of sensitive Staphylococcus aureus. Duplicate strains isolated from the same patient were eliminated. There were also three quality control strains Escherichia coli ATCC 25922, Acinetobacter baumannii ATCC 19606, and Staphylococcus aureus ATCC 29213. The activity test of each compound was carried out on one or more strains of each of the above test bacteria.
(§7) According to the recommendations of relevant documents of the American Clinical and Laboratory Standards Institute (CLSI), the micro broth dilution method was used to determine the MIC of the compounds of the present invention against clinically isolated strains. The culture solution free of drug was used as the test bacteria positive control, the culture solution free of bacterial solution was used as the drug negative control, and the culture solution free of drug solution and bacterial solution was used as the blank control. • 4.1 Formulation of antibacterial drug: All the compounds of the present invention were dissolved in DMSO. The drug concentration range was 128 mg/L-0.06 mg/L. Specific method: The compounds of the present invention were successively diluted by 1:1 with DMSO to obtain an intermediate series with a range of 25600 mg/L-12.5 mg/L. 30 μL of solution from each tube of the intermediate series of each compound was added to a 3 mL/tube series of single broth tube, and mixed well to obtain an intermediate series with a range of 256 mg/L to 0.125 mg/L. The diluted series solution was added to the drug susceptibility plate line by line, 50 μL of solution per well. All ranges became investigated ranges after being mixed with an equal volume of bacterial solution: 128-0.06 mg/L. • 4.2 Culture medium: The drug susceptibility test used cation adjusted Mueller-Hinton broth (CAMHB). • 4.3 Amount of inoculum: The test bacteria cultured overnight were adjusted to 0.5 McFarland turbidity by the direct colony suspension method, and diluted 100 folds, the final inoculum amount was 10^5 CFU/mL. • 4.4 Culture conditions: The test bacteria were cultured at 35±2° C. for 20 hours in air. 5. Interpretation and Judgment of Results
(§8) The drug susceptibility test results were interpretated by reference to CLSI 2019 edition M100 29th edition criteria.
(§9) The results of drug susceptibility test were statistically analyzed by WHONET version 5.6 software.
(§10) The culture solution free of bacterial solution was used as the drug negative control, and the culture solution free of drug solution and bacterial solution was used as the blank control, wherein no bacteria grew in both solutions.

Escherichia coli = assay: as above; settings: 20 hours; for MIC50 / MIC90: clinical strains (carbapenem-resistant), CAMHB; for MIC50: read-out: Escherichia coli Clinical strain MIC50; for MIC90: read-out: Escherichia coli Clinical strain MIC90; for MIC: standard strain ATCC25922, CAMHB
Method: as §5, §6, §7, §8, §9, §10

Acinetobacter baumannii = assay: as above; settings: 20 hours; for MIC50 / MIC90: clinical strains (carbapenem-resistant), CAMHB; for MIC50: read-out: Acinetobacter baumannii Clinical strain MIC50; for MIC90: read-out: Acinetobacter baumannii Clinical strain MIC90; for MIC: standard strain ATCC19606, CAMHB
Method: as §5, §6, §7, §8, §9, §10

Compound | IC50 [2] | IC50 [3] | IC50 [4] | MIC50 (Staphylococcus aureus) | MIC90 (Staphylococcus aureus) | MIC50 (Escherichia coli) | MIC90 (Escherichia coli) | MIC (Escherichia coli) | MIC50 (Acinetobacter baumannii) | MIC90 (Acinetobacter baumannii) | MIC (Staphylococcus aureus) | MIC (Acinetobacter baumannii) | IC50 [1]
O=[N+]([O-])c1ccc(O)c2ncccc12 [Nitroxoline, 5-nitro-8-hydroxyquinoline] | 9200 nM | 5100 nM | 4300 nM | – | – | – | – | – | – | – | – | – | 4500 nM
CCOC(=O)N1CCN(c2ccnc3c(O)ccc([N+](=O)[O-])c23)CC1 [Example 22, ethyl 4-(8-hydroxy-5-nitroquinolin-4-yl)piperazine-1-carboxylate] | 4000 nM | 2700 nM | 2700 nM | – | – | – | – | – | – | – | – | – | 3000 nM
O=[N+]([O-])c1ccc(O)c2nccc(Cl)c12 [Example 2, 4-chloro-5-nitroquinolin-8-ol] | 2000 nM | 4900 nM | 3100 nM | 4 µg/mL (≈ 17.8 µM) | 4 µg/mL (≈ 17.8 µM) | 8 µg/mL (≈ 35.6 µM) | 8 µg/mL (≈ 35.6 µM) | 8 µg/mL (≈ 35.6 µM) | 4 µg/mL (≈ 17.8 µM) | 8 µg/mL (≈ 35.6 µM) | – | – | 3000 nM
O=[N+]([O-])c1ccc(O)c2nccc(C3CCCC3)c12 [Example 24, 4-cyclopentyl-5-nitroquinolin-8-ol] | 1700 nM | 800 nM | 1000 nM | 4 µg/mL (≈ 15.5 µM) | 4 µg/mL (≈ 15.5 µM) | 32 µg/mL (≈ 124 µM) | 64 µg/mL (≈ 248 µM) | 64 µg/mL (≈ 248 µM) | 32 µg/mL (≈ 124 µM) | 64 µg/mL (≈ 248 µM) | 4 µg/mL (≈ 15.5 µM) | 32 µg/mL (≈ 124 µM) | 1400 nM
COc1ccnc2c(O)ccc([N+](=O)[O-])c12 [Example 16, 4-methoxy-5-nitroquinolin-8-ol] | 1500 nM | 1800 nM | 2100 nM | 4 µg/mL (≈ 18.2 µM) | 4 µg/mL (≈ 18.2 µM) | 32 µg/mL (≈ 145 µM) | 32 µg/mL (≈ 145 µM) | 32 µg/mL (≈ 145 µM) | 32 µg/mL (≈ 145 µM) | 32 µg/mL (≈ 145 µM) | 4 µg/mL (≈ 18.2 µM) | 32 µg/mL (≈ 145 µM) | –

Second part, led by results:

IC50 [2] | IC50 [3] | IC50 [4] | MIC50 (Staphylococcus aureus) | MIC90 (Staphylococcus aureus) | MIC50 (Escherichia coli) | MIC90 (Escherichia coli) | MIC (Escherichia coli) | MIC50 (Acinetobacter baumannii) | MIC90 (Acinetobacter baumannii) | MIC (Staphylococcus aureus) | MIC (Acinetobacter baumannii) | Compound | IC50 [1]
2400 nM | 1900 nM | 900 nM | 2 µg/mL (≈ 8.69 µM) | 4 µg/mL (≈ 17.4 µM) | 8 µg/mL (≈ 34.7 µM) | 16 µg/mL (≈ 69.5 µM) | 8 µg/mL (≈ 34.7 µM) | 8 µg/mL (≈ 34.7 µM) | 16 µg/mL (≈ 69.5 µM) | 4 µg/mL (≈ 17.4 µM) | 16 µg/mL (≈ 69.5 µM) | O=[N+]([O-])c1ccc(O)c2nccc(C3CC3)c12 [Example 19, 4-cyclopropyl-5-nitroquinolin-8-ol] | 1300 nM
1600 nM | 1200 nM | 2000 nM | – | – | – | – | – | – | – | – | – | CC1CCCCN1c1ccnc2c(O)ccc([N+](=O)[O-])c12 (stereo not drawn) [Example 13, 4-(2-methylpiperidin-1-yl)-5-nitroquinolin-8-ol] | 2500 nM
500 nM | 1700 nM | 1000 nM | 4 µg/mL (≈ 15 µM) | 8 µg/mL (≈ 30 µM) | 128 µg/mL (≈ 481 µM) | 128 µg/mL (≈ 481 µM) | – | 128 µg/mL (≈ 481 µM) | 128 µg/mL (≈ 481 µM) | 4 µg/mL (≈ 15 µM) | – | O=[N+]([O-])c1ccc(O)c2nccc(-c3ccccc3)c12 [Example 9, 5-nitro-4-phenylquinolin-8-ol] | 1300 nM
